Measured values taken from paper PMC11459959, “Discovery of new acetamide derivatives of 5-indole-1,3,4-oxadiazol-2-thiol as inhibitors of HIV-1 Tat-mediated viral transcription” (Antimicrobial Agents and Chemotherapy, 2024).

Experiments:
HIV-1NL4-3 = assay: HIV-1 replication in A3.01 cells (p24 […]); assay type: cell-based; settings: for EC50: Human immunodeficiency virus 1, 72 h, HIV-1NL4-3 MOI 0.1, 3 days; for inhibition of viral replication (in words): fivefold serial dilutions, 3 days
Protocol: The p24 level from the cell supernatant was subsequently determined using a p24 […] kit (PerkinElmer). In parallel, the cell viability was determined without viral infection because of the viral cytopathic effect. […] In parallel, cell viability was determined. The data (A and B) are presented as the mean ± SD (n = 3). (C) PBMCs (4 × 10^5) infected with HIV-AD8 at an MOI of 0.1 were treated with 1.5 µM of the compounds or ARVs for 3 days. The levels of p24 and cell viability were subsequently determined. (D) J1.1 cells were cultured with the compounds ([…]) under 50 ng/mL phorbol myristate acetate (PMA) treatment for 2 days. The level of p24 was subsequently determined. (E) J-Lat 6.3 cells were treated with the compounds (1.5 µM) under 1 µg/mL of PMA for 2 days. The GFP-positive cell population was analyzed using flow cytometry. The data are represented as a value relative to the DMSO-treated vehicle (D) and a percent of the GFP^+ cell population (E) as mean ± SD (n = 3).
The inhibitory effects of the compounds on viral replication were determined with some minor modifications, as previously described ([12], [62]). […] PBMCs (4 × 10^5) pre-activated with PHA-M for 3 days were washed with fresh media to remove excess PHA-M and subsequently infected with HIV-1NL4-3 or HIV-1AD8 or PIs-resistant HIV-1 strains as A3.01 infection. After infection, the infectious media were replaced with fresh media supplemented with international 10 units (IU)/mL of IL-2 and the indicated compounds. At 72 h after infection, the inhibitory effect of the compounds on viral replication was determined by measuring the p24 amount, an HIV capsid protein, using an HIV-1 p24 […] kit (PerkinElmer, Waltham, MA, USA). Cell viability was determined as described above. The inhibitory effects on provirus reversing in J1.1 and J-Lat 6.3 cells were determined as previously described ([12], [41], [63]) with some minor modifications. Briefly, 5 × 10^4 persistently HIV-1-infected J1.1 or J-Lat 6.3 cells were cultured in either the presence or absence of the compounds at a final concentration of 1.5 µM and treated with PMA (50 ng/mL for J1.1 cells, 1 µg/mL for J-Lat 6.3 cells). Two days after treatment, the levels of viral production were determined using p24 […] for J1.1 cells and flow cytometry analysis for GFP-expressing J-Lat 6.3 cells.

[1] = tested on: Tat-mediated LTR transcription; assay: Dual-reporter assay, F-Luc (Tat-mediated LTR transcription) in bl-DTR cells; assay type: cell-based, HIV-1; settings: Human immunodeficiency virus 1, 24 h, read-out: IC50 of F-Luc (Tat)
Method in brief: (§1)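 bl-DTR cells (TZM-bl with Dox-inducible Flag-Tat86 and R-Luc cassettes; 1 × 10^4) were pretreated with twofold compound dilutions, then induced with 50 ng/mL doxycycline. After 24 h, firefly luciferase (Tat-driven LTR) and Renilla luciferase (general expression) were read by dual-luciferase assay.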

[2] = tested on: general cellular transcription/translation (R-Luc); assay: Dual-reporter assay, R-Luc in bl-DTR cells; assay type: cell-based; settings: doxycycline, 24 h
Method in brief: as §1

Compound	SI (CC50/EC50) (HIV-1NL4-3)	EC50 (HIV-1NL4-3; p24)	IC50 [1]	Relative R-Luc activity at IC50 of F-Luc [2]	EC50 (HIV-1NL4-3; p24, mean ± SD)	inhibition of viral replication (in words) (HIV-1NL4-3)
C[C@@H]1CCO[C@H]2Cn3cc(C(=O)NCc4ccc(F)cc4F)c(=O)c(O)c3C(=O)N12 [DTG, dolutegravir, reference compound]	>7,670	< 1 nM	–	–	–	–
Cc1[nH]c2ccc(-c3nnc(SCC(=O)N4CCCC4)o3)cc2c1C [Compound 13, 2-((5-(2,3-Dimethyl-1H-indol-5-yl)-1,3,4-oxadiazol-2-yl)thio)-1-(pyrrolidin-1-yl)ethan-1-one]	93.29	–	300 ± 30 nM	>100	510 ± 210 nM	inhibited the viral replication
Cc1[nH]c2ccc(-c3nnc(SCC(=O)N4CCCCC4)o3)cc2c1C [Compound 9, 2-((5-(2,3-Dimethyl-1H-indol-5-yl)-1,3,4-oxadiazol-2-yl)thio)-1-(piperidin-1-yl)ethan-1-one]	224.40	–	140 nM	>100	250 ± 60 nM	inhibited the viral replication
CC(C)[C@]12O[C@H]1[C@@H]1O[C@]13[C@]1(O[C@H]1C[C@H]1C4=C(CC[C@@]13C)C(=O)OC4)[C@@H]2O [triptolide, reference compound]	54.05	4.07 ± 2.3 nM	0.82 ± 0.02 nM	>100	–	–
O=C1Nc2ccc(Cl)cc2[C@@](C#CC2CC2)(C(F)(F)F)O1 [EFV, efavirenz, reference compound]	>22,740	< 1 nM	–	–	–	–
